The test system of one series is MDA-MB175 cells. In words: MDA-MB175 cell proliferation, BrdU-labeling. Conditions: for IC50: compound alone or titrated on top of 4 nM Protein #21-His, read-out: cell proliferation inhibition constant IC50, MDA-MB175. Format: cell-based. The method, then:
(§1) Protein #21 and Protein #21-His were expressed and purified as described in Example 1. Standard BrdU cell proliferation assays were performed, well-known to the person skilled in the art. Briefly, effects on cell proliferation of Protein #21-His, other compounds, or Protein #21-His in combination with other compounds, were determined by measuring DNA synthesis using BrdU-labeling (BrdU, Cell Proliferation ELISA, Roche). Briefly, 10000 cells were seeded per well in a 96 well plate in 100 μl complete medium and incubated for 24 hours. Protein #21-His and/or compounds were added for an additional 72 hours. BrdU for cell labeling was added for the last 24 hours. Labeled (proliferating) cells were detected according to the manufactures protocol. The data were analyzed using the Graph Pad prism software (log [c] vs. OD450-602 nm plot). Data were fitted using a non-linear regression fit (log(antagonist) vs. response—variable slope (four parameters)).

The subject of another series is BT474 cells. The experiment in a line: BT474 cell proliferation, BrdU-labeling. The series is classed as cell-based, human. To be noted: for IC50: Homo sapiens, BT-474, compound alone or titrated on top of 2 nM Protein #21-His, read-out: cell proliferation inhibition constant IC50, BT474. The method, then: Protein #21-His and Protein #23-His, were expressed and purified as described in Example 1. Effects of the recombinant binding proteins on BT474 cell proliferation were determined by measuring DNA synthesis using BrdU-labeling (BrdU, Cell Proliferation ELISA, Roche). Briefly, 10000 BT474 cells were seeded per well in a 96 well plate in 100 ul complete medium and incubated for 24 hours. Recombinant binding proteins or controls were added for an additional 72 hours. BrdU for cell labeling was added for the last 24 hours. Labeled (proliferating) cells were detected according to the manufactures protocol. The data were analyzed using the GraphPad prism software, plotting log [c] on the x-axis against OD450-602 nm on the y-axis. Data were fitted using a non-linear regression fit (log(antagonist) vs. response—Variable slope (four parameters)) deriving IC50 values.
as §1

Series [1] in a line: Storage stability in PBS analysed by size-exclusion chromatography. The series is classed as physicochemical. To be noted: 10 mg/ml in PBS, 1 month at −80° C. Here is the method:
A storage stability improvement is also observed, when testing the storage stability of Protein #21 and Protein #22 (recombinant binding proteins consisting of the amino acid sequences corresponding to SEQ ID NOs: 21 and 22, respectively). Protein #21 and Protein #22 are prepared as described in Example 1, samples are concentrated to 10 mg/ml in PBS and stored for 1 month at −80° C. in or at 40° C. in glass vials, followed by analysis on standard size-exclusion chromatography.
For orientation: In gel filtration, larger molecules generally elute earlier.

The nature of series [2]: Pharmacokinetic analysis in mouse. The series is classed as in vivo. The method, then: The measurements shown in this example are the result of a half-life engineering effort as described in Example 11. Protein #21-His and Protein #23-His were expressed and purified as described in Example 1. The pharmacokinetic properties of the His-tagged proteins were assessed in mouse as described elsewhere (Zahnd, C., Kawe, M., Stumpp, M. T., de Pasquale, C., Tamaskovic, R., Nagy-Davidescu, G., Dreier, B., Schibli, R., Binz, H. K., Waibel, R., Plückthun, A., Cancer Res. 70, 1595-1605, 2010). […] Having SEQ ID NO: 16 present in the recombinant binding protein thus appears to be more favorable than having SEQ ID NO: 18 present.
Polypeptide linkers that link protein domains are well-known to the person skilled in the art. Gly-Ser-rich linkers are well-known from single-chain Fv antibody fragments, where they have proven to be most appropriate to link the two Fv polypeptide chains. […] Protein #26-His and Protein #27-His, were expressed and purified as described in Example 1. Pharmacokinetic analyses in mouse were performed as described in Example 8.
(§2) For the studies in this example Protein #21-His, Protein #24-His, Protein #28-His, Protein #29-His, and Protein #30-His were prepared according to Example 1. Protein #28-His was additionally PEGylated using a 40 kDa PEG moiety (NOF Sunbright GL2-400MA) by maleimid coupling of the PEG-moiety onto the free C-terminal cysteine of Protein #28-His, followed by purification to homogeneity using standard purification methods, procedures well known to the person skilled in the art. Pharmacokinetic analyses in mouse or cynomolgus monkey were performed as described in Examples 8 and 9.

Series [3] can be described thus: Pharmacokinetic analysis in cynomolgus monkey. The series is classed as in vivo. To be noted: 1 mg/kg, intravenous infusion. The method, then:
The measurements shown in this example are the result of a half-life engineering effort as described in Example 11. Protein #21-His, Protein #23-His, and Protein #24-His were expressed and purified as described in Example 1. The pharmacokinetic properties of the proteins were assessed in cynomolgus monkey. Proteins were administered via intravenous infusion for 30 min at a target dose level of between 1 mg/kg to cynomolgus monkeys. Blood samples were collected pre-dose and again at selected time points, for example 5 min, 10 min, 0.5 hours, 1 hour, 2 hours, 4 hours, 8 hours, 12 hours, 24 hours, 48 hours, 72 hours, 96 hours, 120 hours, 144 hours, 168 hours, 192 hours, 216 hours, and 240 hours post-end of infusion (i.e. post-injection). The blood samples were allowed to stand at room temperature and were centrifuged to generate serum, followed by storage at −80° C. pending analyses. Pharmacokinetic parameters were determined using procedures well known to the person skilled in the art. Serum concentrations of proteins were determined by sandwich ELISA using a rabbit monoclonal anti-designed ankyrin repeat domain antibody as capture reagent and murine monoclonal anti-designed ankyrin repeat domain antibody as detection reagent, and using a standard curve. Pharmacokinetic parameters were determined using standard software such as Phoenix WinNonLin (Certara, Princeton, USA) or Graph Pad Prism (GraphPad Software, La Jolla, USA) and standard analyses such as non-compartmental analyses. […] Target mediated clearance is well-known to the person skilled in the art and is known from e.g. antibodies targeting HER2.
Similarly, Protein #21-His was expressed and purified as described in Example 1. The pharmacokinetic properties of the proteins were assessed in cynomolgus monkey as described above at 1 mg/kg, 5 mg/kg and 10 mg/kg.
Similar results are observed when testing Protein #21 (expressed and purified as described in Example 1). The pharmacokinetic properties of the proteins are assessed in cynomolgus monkey as described above at 1 mg/kg, 10 mg/kg and 100 mg/kg. Pharmacokinetic parameters are evaluated as described above.
as §2

`CO[C@H]1C[C@@H]2CC[C@@H](C)[C@@](O)(O2)C(=O)C(=O)N2CCCC[C@H]2C(=O)O[C@H]([C@H](C)C[C@@H]2CC[C@@H](OCCO)[C@H](OC)C2)CC(=O)[C@H](C)/C=C(\C)[C@@H](O)[C@@H](OC)C(=O)[C@H](C)C[C@H](C)/C=C/C=C/C=C/1C` [Everolimus]: in the series on MDA-MB175 cells, the IC50 was found to be 263000 nM.
Take `CS(=O)(=O)CCNCc1ccc(-c2ccc3ncnc(Nc4ccc(OCc5cccc(F)c5)c(Cl)c4)c3c2)o1` [Lapatinib]: the IC50 in the series on BT474 cells was found to be 765 nM; with MDA-MB175 cells, 2810 nM.
In the case of `C=C1C[C@@H]2CC[C@@]34C[C@H]5O[C@H]6[C@@H](O3)[C@H]3O[C@H](CC[C@@H]3O[C@H]6[C@H]5O4)CC(=O)C[C@@H]3[C@@H](OC)[C@@H](C[C@H](O)CN)O[C@H]3C[C@H]3O[C@@H](CC[C@@H]1O2)C[C@@H](C)C3=C` [Eribulin], in the series with BT474 cells (single agent or on top of suboptimal Protein #21-His (2 nM) or Protein #21 (1 nM)), the “inhibition of BT474 cell proliferation, in words” value was “not active”. In addition, the IC50 with MDA-MB175 cells was 104 nM. For the same molecule, the “inhibition of MDA-MB175 cell proliferation, in words” value with MDA-MB175 cells (single agent or on top of suboptimal Protein #21-His (4 nM) or Protein #21 (10 nM)) is on record as “very low potency”.
In the case of `CS(=O)(=O)N1CCN(Cc2cc3nc(-c4cccc5[nH]ncc45)nc(N4CCOCC4)c3s2)CC1` [GDC-0941], the IC50 with BT474 cells was found to be 176 nM; with MDA-MB175 cells, 203 nM.

B1: Protein #22: SEQ ID NO: 22; corresponding recombinant binding protein with serum albumin binding domains of SEQ ID NO: 13 (protein)
chain: GSDLGKKLLEAARAGQDDEVRELLKAGADVNAKDYFSHTPLHLAARNGHLKIVEVLLKAGADVNAKDFAGKTPLHLAANDGHLEIVEVLLKAGADVNAQDIFGKTPADIAADAGHEDIAEVLQKAAGSPTPTPTTPTPTPTTPTPTPTGSDLGIKLLFAAAKGQDDEVRELLKAGADVNAKDFQGVTPLHIAAQSGHLEIVEVLLKAGADVNAKDVTGDTPLHLAAQHGHLEIVEVLLKAGADVNAQDERGWTPADLAADWGHEDIAEVLQKAAGSPTPTPTTPTPTPTTPTPTPTGSDLGKKLLEAARAGQDDEVRELLKAGADVNAKDEYGLTPLYLATAHGHLEIVEVLLKAGADVNAVDAIGFTPLHLAAFIGHLEIAEVLLKAGADVNAQDKFGKTPADIAAGAGNEDIAEVLQKAAGSPTPTPTTPTPTPTTPTPTPTGSDLGKKLLEAARAGQDDEVRELLKAGADVNAKDYFSHTPLHLAARNGHLKIVEVLLKAGADVNAKDFAGKTPLHLAANDGHLEIVEVLLKAGADVNAQDIFGKTPADIAADAGHEDIAEVLQKAA
modifications: Protein comprising four designed ankyrin repeat domains
As for B1, the “elution profiles upon storage at −80° C.” value in series [1] is on record as “equivalent elution profiles”.

B2: Protein #23-His: SEQ ID NO: 23 with a His-tag (SEQ ID NO: 1) fused to its N terminus (protein)
chain: MRGSHHHHHHGSDLGKKLLEAARAGQDDEVRELLKAGADVNAKDYFSHTPLHLAARNGHLKIVEVLLKAGADVNAKDFAGKTPLHLAANEGHLEIVEVLLKAGADVNAQDIFGKTPADIAADAGHEDIAEVLQKAAGSPTPTPTTPTPTPTTPTPTPTGSDLGVKLLWAAARGQDDEVRELLKAGADVNAKDFQGITPLHIAATNGHLEIVEVLLKAGADVNAKDITGETPLHHAADSGHLEIVEVLLKAGADVNAQDKAGVTPADLAAAWGHEDIAEVLQKAAGSPTPTPTTPTPTPTTPTPTPTGSDLGKKLLEAARAGQDDEVRELLKAGADVNAKDEYGLTPLYLATAHGHLEIVEVLLKAGADVNAVDAIGFTPLHLAAFIGHLEIAEVLLKAGADVNAQDKFGKTPADIAAGAGNEDIAEVLQKAAGSPTPTPTTPTPTPTTPTPTPTGSDLGKKLLEAARAGQDDEVRELLKAGADVNAKDYFSHTPLHLAARNGHLKIVEVLLKAGADVNAKDFAGKTPLHLAANEGHLEIVEVLLKAGADVNAQDIFGKTPADIAADAGHEDIAEVLQKAA
modifications: His-tag; Protein comprising four designed ankyrin repeat domains
Take B2: the “% ID remaining after 48 hours” value in series [2] is 6.5 % ID. Further, the terminal half-life is 24.7 h in series [2] and 35 h in series [3]. In the series with BT474 cells (BT474 proliferation), the “IC50 higher than that of Protein #21-His” value came to 60%.

These data come from US20210130420A1, “RECOMBINANT BINDING PROTEINS TARGETING HER2 AND SERUM ALBUMIN, AND THEIR USES” (Molecular Partners AG, priority 2016, published 2021).
